{"source": "paper PMC6934184", "about": "“Selective DNA-PKcs inhibition extends the therapeutic index of localized radiotherapy and chemotherapy” (The Journal of Clinical Investigation, 2019)", "target": "T1, TNIK (Homo sapiens, UniProt Q9UKE5)", "T1 construct": "purchased Thermo Fisher Scientific (Life Technologies) SelectScreen", "T1 sequence (Q9UKE5 whole entry)": "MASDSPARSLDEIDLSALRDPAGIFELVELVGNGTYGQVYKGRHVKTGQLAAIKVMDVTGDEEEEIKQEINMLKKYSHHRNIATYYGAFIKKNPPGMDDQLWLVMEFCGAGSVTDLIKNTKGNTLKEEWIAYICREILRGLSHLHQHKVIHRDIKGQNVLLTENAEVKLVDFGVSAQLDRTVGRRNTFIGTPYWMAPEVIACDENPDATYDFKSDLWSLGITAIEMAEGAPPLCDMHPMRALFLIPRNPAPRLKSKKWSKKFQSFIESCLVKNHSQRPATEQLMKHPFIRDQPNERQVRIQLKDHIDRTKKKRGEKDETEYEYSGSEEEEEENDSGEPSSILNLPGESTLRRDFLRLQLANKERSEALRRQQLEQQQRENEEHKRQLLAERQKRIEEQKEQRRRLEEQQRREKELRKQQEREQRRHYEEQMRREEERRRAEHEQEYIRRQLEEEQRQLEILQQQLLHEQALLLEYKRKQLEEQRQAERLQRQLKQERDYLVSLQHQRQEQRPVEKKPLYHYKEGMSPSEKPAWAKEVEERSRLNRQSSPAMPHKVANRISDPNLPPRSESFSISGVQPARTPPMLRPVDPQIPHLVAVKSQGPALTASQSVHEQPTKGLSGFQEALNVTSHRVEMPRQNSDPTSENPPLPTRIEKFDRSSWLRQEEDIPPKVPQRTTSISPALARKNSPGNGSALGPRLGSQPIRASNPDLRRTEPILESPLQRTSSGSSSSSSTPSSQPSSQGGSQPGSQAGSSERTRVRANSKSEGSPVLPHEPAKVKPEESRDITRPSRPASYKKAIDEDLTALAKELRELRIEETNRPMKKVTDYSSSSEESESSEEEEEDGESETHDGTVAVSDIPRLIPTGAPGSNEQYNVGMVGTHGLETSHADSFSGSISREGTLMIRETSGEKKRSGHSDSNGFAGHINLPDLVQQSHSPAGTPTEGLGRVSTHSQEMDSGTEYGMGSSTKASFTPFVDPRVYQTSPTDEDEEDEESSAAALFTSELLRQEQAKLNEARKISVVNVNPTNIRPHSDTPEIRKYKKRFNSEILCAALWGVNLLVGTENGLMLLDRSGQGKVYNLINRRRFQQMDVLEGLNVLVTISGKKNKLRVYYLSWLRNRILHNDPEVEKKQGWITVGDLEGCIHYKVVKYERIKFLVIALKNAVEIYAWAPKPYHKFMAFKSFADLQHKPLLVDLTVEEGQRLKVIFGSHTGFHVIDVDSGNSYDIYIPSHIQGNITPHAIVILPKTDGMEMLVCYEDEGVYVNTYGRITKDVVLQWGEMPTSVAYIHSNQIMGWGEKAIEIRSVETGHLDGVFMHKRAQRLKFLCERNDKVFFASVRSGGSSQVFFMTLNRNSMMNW", "experiment": "SelectScreen LanthaScreen", "format": "binding", "conditions": "read-out: % displacement", "in_short": "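Percent values come from Thermo SelectScreen profiling of NU5455, combining activity and binding assays. CSF1R was run in Z'LYTE format at Km app ATP, and CAMK1 in Adapta format with ATP listed at 10.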", "data": [{"molecule": "CN(C(=O)CN1CCOCC1)c1ccc2sc3c(-c4cccc5c(=O)cc(N6CC7CCC(C6)O7)oc45)cccc3c2c1", "note": "[NU5455]", "values": [{"measurement": "inhibition at 1 µM", "result": 7.3, "unit": "%"}]}]}
